Test results published in patent EP4603105A1, “PHARMACEUTICAL COMPOSITION CONTAINING CYCLIC COMPOUND HAVING SELECTIVE KRAS INHIBITORY EFFECT AGAINST HRAS AND NRAS” (CHUGAI SEIYAKU KABUSHIKI KAISHA, priority 2022, dated 2024).
Where a SMILES comes first, the peptide text is derived from it. Bridges are numbered along the chain shown (N, C = ends). [ ]: non-standard residue; d: D form. The star is where a group is joined. hPhe(3-Cl-4-CF3) = N[C@@H](CCc1ccc(C(F)(F)F)c(Cl)c1)C(=O)O; NPrPhe(4-CF3) = CCCN[C@@H](Cc1ccc(C(F)(F)F)cc1)C(=O)O; Piperazinyl(4-(3-oxetanyl)) = C1OCC1N1CCN(*)CC1; 3Oxa8azabicyclo(3.2.1)octane = C1CC2COCC1N2*; NMeGly(cPent) = CN[C@H](C(=O)O)C1CCCC1; Piperidide(4-Me) = CC1CCN(*)CC1; NMeD = CN[C@@H](CC(=O)O)C(=O)O; NMeL = CN[C@@H](CC(C)C)C(=O)O; Azetidin(1-yl) = C1CN(*)C1; Morpholide = C1CN(*)CCO1; NMeA = CN[C@@H](C)C(=O)O; Piperidide = C1CCN(*)CC1; Pyrrolidide = C1CCN(*)C1; Ac5c = NC1(C(=O)O)CCCC1; Aze = O=C(O)[C@@H]1CCN1; X11 = CC1(C)CCN(*)C1; Sar = CNCC(=O)O

What was measured:
HRAS wild-type protein = HRAS wild-type protein (Homo sapiens, UniProt P01112); test: Binding to HRAS by surface plasmon resonance (SPR), KD and KD ratio to KRAS; conditions: ratio of KD for HRAS wild-type protein to KD for KRAS
How it was run: (§1)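 GDP-bound biotin-Avi RAS captured at ~100–300 RU, 30°C, pH 7.4 HBS containing 10 µM GDP, 10 mM MgCl2, 1 mM DTT, 0.01% Tween 20 and 4% DMSO. KD by 1:1 fitting.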

[1] = molecular target: GDP-bound NRAS wild-type protein (Homo sapiens, UniProt P01111); test: Binding to NRAS by surface plasmon resonance (SPR), KD and KD ratio to KRAS; conditions: ratio of KD for GDP-bound NRAS wild-type protein to KD for KRAS
How it was run: as §1

[2] = system: human lung cancer strain NCI-H441; type: cell-based
How it was run: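 Readout: […] after the ATP-based reagent. Compound: serial dilutions in dimethyl sulfoxide.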

HRAS wild-type protein, sequence (P01112 whole entry): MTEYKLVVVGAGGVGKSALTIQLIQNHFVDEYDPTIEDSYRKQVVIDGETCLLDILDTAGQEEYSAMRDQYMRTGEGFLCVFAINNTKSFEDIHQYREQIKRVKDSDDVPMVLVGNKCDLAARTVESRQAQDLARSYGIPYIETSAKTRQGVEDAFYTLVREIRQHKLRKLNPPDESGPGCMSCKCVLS
GDP-bound NRAS wild-type protein, sequence (P01111 whole entry): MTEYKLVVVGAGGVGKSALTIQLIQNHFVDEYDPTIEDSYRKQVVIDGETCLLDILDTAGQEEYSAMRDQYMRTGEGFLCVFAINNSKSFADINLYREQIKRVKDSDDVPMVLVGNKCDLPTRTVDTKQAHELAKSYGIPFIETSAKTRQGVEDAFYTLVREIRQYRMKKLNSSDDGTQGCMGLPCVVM

SMILES	HRAS /KRAS (HRAS wild-type protein)	NRAS /KRAS [1]	IC50 [2] [nM]
CCCN1C(=O)[C@@H]2CCN2C(=O)CN(C)C(=O)[C@H]([C@@H](C)CC)NC(=O)[C@H](CC(C)C)N(C)C(=O)C[C@@H](C(=O)N2CCOCC2)N(C)C(=O)[C@H](C2CCCC2)N(C)C(=O)C2(CCCC2)NC(=O)[C@@H]2CCCN2C(=O)[C@H](CCc2ccc(C(F)(F)F)c(Cl)c2)NC(=O)CN(C)C(=O)[C@@H]1Cc1ccc(C(F)(F)F)cc1 [PP0156] ([NMeL]I[Sar][Aze][NPrPhe(4-CF3)][Sar][hPhe(3-Cl-4-CF3)]P[Ac5c][NMeGly(cPent)][NMeD]-Morpholide; lactam N-11)	B (a compound having 3 or more and less than 10 is denoted as B)	C (A compound having a KD ratio of 0.1 or more and less than 3 is denoted as C)	8.1
CCCN1C(=O)CN(C)C(=O)[C@@H]2CCCN2C(=O)[C@H]([C@@H](C)CC)NC(=O)[C@H](CC(C)C)N(C)C(=O)C[C@@H](C(=O)N2CCOCC2)N(C)C(=O)[C@H](C2CCCC2)N(C)C(=O)C2(CCCC2)NC(=O)[C@@H]2CCCN2C(=O)[C@H](CCc2ccc(C(F)(F)F)c(Cl)c2)NC(=O)CN(C)C(=O)[C@@H]1Cc1ccc(C(F)(F)F)cc1 [PP0165] ([NMeL]IP[Sar][NPrPhe(4-CF3)][Sar][hPhe(3-Cl-4-CF3)]P[Ac5c][NMeGly(cPent)][NMeD]-Morpholide; lactam N-11)	B (a compound having 3 or more and less than 10 is denoted as B)	B (a compound having 3 or more and less than 10 is denoted as B)	35
CCCN1C(=O)CN(C)C(=O)CN(C)C(=O)[C@H]([C@@H](C)CC)NC(=O)[C@H](CC(C)C)N(C)C(=O)C[C@@H](C(=O)N(C)C)N(C)C(=O)[C@H](C2CCCC2)N(C)C(=O)C2(CCCC2)NC(=O)[C@@H]2CCCN2C(=O)[C@H](CCc2ccc(C(F)(F)F)c(Cl)c2)NC(=O)CN(C)C(=O)[C@@H]1Cc1ccc(C(F)(F)F)cc1 [PP0169] ([NMeL]I[Sar][Sar][NPrPhe(4-CF3)][Sar][hPhe(3-Cl-4-CF3)]P[Ac5c][NMeGly(cPent)][NMeD]-NMe2; lactam N-11)	B (a compound having 3 or more and less than 10 is denoted as B)	B (a compound having 3 or more and less than 10 is denoted as B)	2.3
CCCN1C(=O)CN(C)C(=O)CN(C)C(=O)[C@H]([C@@H](C)CC)NC(=O)[C@H](CC(C)C)N(C)C(=O)C[C@@H](C(=O)N2CCC2)N(C)C(=O)[C@H](C2CCCC2)N(C)C(=O)C2(CCCC2)NC(=O)[C@@H]2CCCN2C(=O)[C@H](CCc2ccc(C(F)(F)F)c(Cl)c2)NC(=O)CN(C)C(=O)[C@@H]1Cc1ccc(C(F)(F)F)cc1 [PP0172] ([NMeL]I[Sar][Sar][NPrPhe(4-CF3)][Sar][hPhe(3-Cl-4-CF3)]P[Ac5c][NMeGly(cPent)][NMeD]-{Azetidin(1-yl)}; lactam N-11)	C (A compound having a KD ratio of 0.1 or more and less than 3 is denoted as C)	B (a compound having 3 or more and less than 10 is denoted as B)	3.8
CCCN1C(=O)CN(C)C(=O)CN(C)C(=O)[C@H]([C@@H](C)CC)NC(=O)[C@H](CC(C)C)N(C)C(=O)C[C@@H](C(=O)N2C3CCC2COC3)N(C)C(=O)[C@H](C2CCCC2)N(C)C(=O)C2(CCCC2)NC(=O)[C@@H]2CCCN2C(=O)[C@H](CCc2ccc(C(F)(F)F)c(Cl)c2)NC(=O)CN(C)C(=O)[C@@H]1Cc1ccc(C(F)(F)F)cc1 [PP0173] ([NMeL]I[Sar][Sar][NPrPhe(4-CF3)][Sar][hPhe(3-Cl-4-CF3)]P[Ac5c][NMeGly(cPent)][NMeD]-{3Oxa8azabicyclo(3.2.1)octane}; lactam N-11)	C (A compound having a KD ratio of 0.1 or more and less than 3 is denoted as C)	B (a compound having 3 or more and less than 10 is denoted as B)	11.6
CCCN1C(=O)CN(C)C(=O)CN(C)C(=O)[C@H]([C@@H](C)CC)NC(=O)[C@H](CC(C)C)N(C)C(=O)C[C@@H](C(=O)N2CCN(C3COC3)CC2)N(C)C(=O)[C@H](C2CCCC2)N(C)C(=O)C2(CCCC2)NC(=O)[C@@H]2CCCN2C(=O)[C@H](CCc2ccc(C(F)(F)F)c(Cl)c2)NC(=O)CN(C)C(=O)[C@@H]1Cc1ccc(C(F)(F)F)cc1 [PP0175] ([NMeL]I[Sar][Sar][NPrPhe(4-CF3)][Sar][hPhe(3-Cl-4-CF3)]P[Ac5c][NMeGly(cPent)][NMeD]-{Piperazinyl(4-(3-oxetanyl))}; lactam N-11)	B (a compound having 3 or more and less than 10 is denoted as B)	B (a compound having 3 or more and less than 10 is denoted as B)	6.6
CCCN1C(=O)CN(C)C(=O)CN(C)C(=O)[C@H]([C@@H](C)CC)NC(=O)[C@H](CC(C)C)N(C)C(=O)C[C@@H](C(=O)N2CCC(C)CC2)N(C)C(=O)[C@H](C2CCCC2)N(C)C(=O)C2(CCCC2)NC(=O)[C@@H]2CCCN2C(=O)[C@H](CCc2ccc(C(F)(F)F)c(Cl)c2)NC(=O)CN(C)C(=O)[C@@H]1Cc1ccc(C(F)(F)F)cc1 [PP0176] ([NMeL]I[Sar][Sar][NPrPhe(4-CF3)][Sar][hPhe(3-Cl-4-CF3)]P[Ac5c][NMeGly(cPent)][NMeD]-{Piperidide(4-Me)}; lactam N-11)	C (A compound having a KD ratio of 0.1 or more and less than 3 is denoted as C)	B (a compound having 3 or more and less than 10 is denoted as B)	17.7
CCCN1C(=O)CN(C)C(=O)CN(C)C(=O)[C@H]([C@@H](C)CC)NC(=O)[C@H](CC(C)C)N(C)C(=O)C[C@@H](C(=O)N2CCC(C)(C)C2)N(C)C(=O)[C@H](C2CCCC2)N(C)C(=O)C2(CCCC2)NC(=O)[C@@H]2CCCN2C(=O)[C@H](CCc2ccc(C(F)(F)F)c(Cl)c2)NC(=O)CN(C)C(=O)[C@@H]1Cc1ccc(C(F)(F)F)cc1 [PP0177] ([NMeL]I[Sar][Sar][NPrPhe(4-CF3)][Sar][hPhe(3-Cl-4-CF3)]P[Ac5c][NMeGly(cPent)][NMeD]-X11; lactam N-11)	C (A compound having a KD ratio of 0.1 or more and less than 3 is denoted as C)	B (a compound having 3 or more and less than 10 is denoted as B)	34.4
CCCN1C(=O)[C@@H]2CCN2C(=O)[C@H](C)N(C)C(=O)[C@H]([C@@H](C)CC)NC(=O)[C@H](CC(C)C)N(C)C(=O)C[C@@H](C(=O)N(C)C)N(C)C(=O)[C@H](C2CCCC2)N(C)C(=O)C2(CCCC2)NC(=O)[C@@H]2CCCN2C(=O)[C@H](CCc2ccc(C(F)(F)F)c(Cl)c2)NC(=O)CN(C)C(=O)[C@@H]1Cc1ccc(C(F)(F)F)cc1 [PP0178] ([NMeL]I[NMeA][Aze][NPrPhe(4-CF3)][Sar][hPhe(3-Cl-4-CF3)]P[Ac5c][NMeGly(cPent)][NMeD]-NMe2; lactam N-11)	B (a compound having 3 or more and less than 10 is denoted as B)	C (A compound having a KD ratio of 0.1 or more and less than 3 is denoted as C)	1.5
CCCN1C(=O)[C@@H]2CCN2C(=O)[C@H](C)N(C)C(=O)[C@H]([C@@H](C)CC)NC(=O)[C@H](CC(C)C)N(C)C(=O)C[C@@H](C(=O)N2CCCC2)N(C)C(=O)[C@H](C2CCCC2)N(C)C(=O)C2(CCCC2)NC(=O)[C@@H]2CCCN2C(=O)[C@H](CCc2ccc(C(F)(F)F)c(Cl)c2)NC(=O)CN(C)C(=O)[C@@H]1Cc1ccc(C(F)(F)F)cc1 [PP0179] ([NMeL]I[NMeA][Aze][NPrPhe(4-CF3)][Sar][hPhe(3-Cl-4-CF3)]P[Ac5c][NMeGly(cPent)][NMeD]-Pyrrolidide; lactam N-11)	B (a compound having 3 or more and less than 10 is denoted as B)	C (A compound having a KD ratio of 0.1 or more and less than 3 is denoted as C)	4.5
CCCN1C(=O)[C@@H]2CCN2C(=O)[C@H](C)N(C)C(=O)[C@H]([C@@H](C)CC)NC(=O)[C@H](CC(C)C)N(C)C(=O)C[C@@H](C(=O)N2CCCCC2)N(C)C(=O)[C@H](C2CCCC2)N(C)C(=O)C2(CCCC2)NC(=O)[C@@H]2CCCN2C(=O)[C@H](CCc2ccc(C(F)(F)F)c(Cl)c2)NC(=O)CN(C)C(=O)[C@@H]1Cc1ccc(C(F)(F)F)cc1 [PP0180] ([NMeL]I[NMeA][Aze][NPrPhe(4-CF3)][Sar][hPhe(3-Cl-4-CF3)]P[Ac5c][NMeGly(cPent)][NMeD]-Piperidide; lactam N-11)	C (A compound having a KD ratio of 0.1 or more and less than 3 is denoted as C)	C (A compound having a KD ratio of 0.1 or more and less than 3 is denoted as C)	7.5
CCCN1C(=O)[C@@H]2CCN2C(=O)[C@H](C)N(C)C(=O)[C@H]([C@@H](C)CC)NC(=O)[C@H](CC(C)C)N(C)C(=O)C[C@@H](C(=O)N2CCC2)N(C)C(=O)[C@H](C2CCCC2)N(C)C(=O)C2(CCCC2)NC(=O)[C@@H]2CCCN2C(=O)[C@H](CCc2ccc(C(F)(F)F)c(Cl)c2)NC(=O)CN(C)C(=O)[C@@H]1Cc1ccc(C(F)(F)F)cc1 [PP0181] ([NMeL]I[NMeA][Aze][NPrPhe(4-CF3)][Sar][hPhe(3-Cl-4-CF3)]P[Ac5c][NMeGly(cPent)][NMeD]-{Azetidin(1-yl)}; lactam N-11)	B (a compound having 3 or more and less than 10 is denoted as B)	C (A compound having a KD ratio of 0.1 or more and less than 3 is denoted as C)	1.5
